Data set [1] has as its system SARS-CoV-2. The class given is cell-based.
Data set [2] concerns SARS-CoV-2. The class given is cell-based. As to conditions: diphenhydramine 40 μg/ml, lactoferrin 400 μg/ml; MOI 0.01; 48 h supernatant.
Data set [3] has as its system SARS-CoV-2. As to conditions: for EC50, inhibition of SARS-CoV-2 induced cytotoxicity: Vero E6, MOI 0.2, LDH release.
Data set [4] concerns SARS-CoV-2.
The subject of data set [5] is SARS-CoV-2. The experiment in a line: microbe, parasite or virus in culture. As to conditions: Severe acute respiratory syndrome coronavirus 2, Vero C1008, read-out: EC50, inhibition of SARS-CoV-2 induced cytotoxicity, diphenhydramine with 400 μg/ml of lactoferrin.

Each structure is given as a SMILES string. pEC50: −log10 of the molar value. Where two headings read alike, the source gives them in different places.

In the case of `CN(C)CCOC(c1ccccc1)c1ccccc1` [Diphenhydramine], the “Reduction in N-protein RNA” value in the data set with SARS-CoV-2 [1] came to 32.2%. In addition, in the data set with SARS-CoV-2 [2], the “Reduction of infectious SARS-CoV-2 particle release compared to untreated H23-hACE2 cells” value is recorded as −1 log. The “Decrease of diphenhydramine EC50” value in the data set on SARS-CoV-2 [3] (co-administration of 400 μg/ml of lactoferrin) was determined as 55.5%. Moreover, the “EC50, inhibition of SARS-CoV-2 induced cytotoxicity” value came out at 122 µg/mL in the data set on SARS-CoV-2 [3] (diphenhydramine alone) and 54.25 µg/mL with SARS-CoV-2 [3] (diphenhydramine with 400 μg/ml of lactoferrin). Also, the “Inhibition of SARS-CoV-2 infection in vitro” value with SARS-CoV-2 [4] is recorded as “inhibited SARS-CoV-2 infection when administered alone”. Moreover, the “Reduction of the diphenhydramine EC50 by presence of LFN” value in the data set on SARS-CoV-2 [4] is reported as 3 times. Besides, in the data set with SARS-CoV-2 [4] (5 μg/mL DPH alone), the “Decrease of SARS-CoV-2 induced cytotoxicity” value is on record as “unable to decrease SARS-CoV-2 induced cytotoxicity”. For the same compound, the pEC50 with SARS-CoV-2 [5] (Vero E6, MOI 0.2) was 3.73. The EC50 in the data set on SARS-CoV-2 [5] (Vero E6, MOI 0.2, LDH release) worked out at 54.2 µg/mL.

The values above are taken from patent US20240115667A1 (priority 2020, published 2024).
